≈ marks a conversion by molar mass, not a printed value. Where two headings read alike, the source gives them in different places.
What was measured:
[1] = solubility of vinpocetine in cyclodextrin solutions of different concentrations (phase solubility, HPLC); type: physicochemical; conditions: aqueous cyclodextrin solution, 37 °C, aqueous with cosolvent or surfactant or cyclodextrin, thermodynamic from solid
Description: 10 mg of vinpocetine, cyclodextrin in different amounts and 10 ml of distilled water were charged into 20 ml test tubes. After closing, the tubes were agitated for 24 hours at 37°C, thereafter the samples were filtrated and the filtrates were analysed by HPLC (High Performance Liquid Chromatography) in 0.1N HCl solution.

[2] = p.o.; cited from earlier work
[3] = cited from earlier work

SMILES: CCOC(=O)C1=C[C@]2(CC)CCCN3CCc4c(n1c1ccccc41)[C@@H]32 [vinpocetine, eburnamenine-14-carboxylic acid ethyl ester]
- solubility at 24 h ([1]; HP-β-cyd 25.0 mM in distilled water): 5.5 µg/mL (≈ 15.7 µM)
- solubility at 24 h ([1]; HP-β-cyd 50.0 mM in distilled water): 12.8 µg/mL (≈ 36.5 µM)
- solubility at 24 h ([1]; HP-β-cyd 100.0 mM in distilled water): 23.2 µg/mL (≈ 66.2 µM)
- solubility at 24 h ([1]; γ-cyd 12.5 mM in distilled water): 6.1 µg/mL (≈ 17.4 µM)
- solubility at 24 h ([1]; γ-cyd 25.0 mM in distilled water): 12 µg/mL (≈ 34.2 µM)
- solubility at 24 h ([1]; γ-cyd 50.0 mM in distilled water): 24.4 µg/mL (≈ 69.6 µM)
- absolute bioavailability [2]: 6.7%
- solubility ([3]; in ethanol and 0.1N HCl): dissolves well
- solubility ([3]; in water, ethyl ether and hexane): poorly soluble
